According to US11939334B2, “Substituted pyrimido[4,5-b][1,4]diazepines as PLK1 degradation inducers” (UPPTHERA, INC., priority 2021, dated 2024):

Legend:
PLK1 = molecular target: T1, PLK1 (Homo sapiens, UniProt P53350); assay: Luciferase assay for PLK1 in HeLa LgBit (Plk1-HiBit KI) cell line; type: cell-based; conditions: 300 nM compound, luminescence after 9 hours
T1 construct: endogenous in cells; host or cells: HeLa cells stably expressing LgBit, with CRISPR/Cas9 knock-in of HiBit at the endogenous PLK1 locus
T1 sequence (P53350 whole entry): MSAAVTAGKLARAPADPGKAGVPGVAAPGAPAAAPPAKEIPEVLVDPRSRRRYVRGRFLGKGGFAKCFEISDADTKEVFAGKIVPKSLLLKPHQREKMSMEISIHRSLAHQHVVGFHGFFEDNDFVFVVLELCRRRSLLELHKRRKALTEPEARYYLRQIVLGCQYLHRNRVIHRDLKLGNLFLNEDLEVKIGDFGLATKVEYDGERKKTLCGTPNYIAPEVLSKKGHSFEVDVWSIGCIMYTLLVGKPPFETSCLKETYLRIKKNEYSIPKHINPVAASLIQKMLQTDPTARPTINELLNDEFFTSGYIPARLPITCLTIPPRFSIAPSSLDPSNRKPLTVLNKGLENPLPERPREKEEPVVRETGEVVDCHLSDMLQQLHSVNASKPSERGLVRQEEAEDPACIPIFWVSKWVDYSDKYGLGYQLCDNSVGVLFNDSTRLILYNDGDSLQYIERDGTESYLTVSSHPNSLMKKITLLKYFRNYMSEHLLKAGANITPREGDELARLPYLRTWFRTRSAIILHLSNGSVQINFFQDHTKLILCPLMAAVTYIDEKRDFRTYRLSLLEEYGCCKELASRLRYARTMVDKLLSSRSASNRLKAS
Description: 2. Luciferase Assay for PLK1
(1) Preparation and Culture of HeLa LgBit (Plk1-HiBit KI) Cell Line
A HeLa cell line in which the LgBit vector was transfected and expressed stably was prepared. Then, after constructing gRNA and donor to express the HiBit amino acid sequence behind the C-terminal of the Plk1 gene, which was inherent in the cell, it was inserted into the cell together with a vector capable of expressing CRISPR/Cas9. Only the cells in which the insertion was completed and knock-in had progressed were selected, sub-cultured and used.
(2) Treatment of Compounds of the Present Invention and Method of Luciferase Assay
In the case of HeLa LgBit (Plk1-HiBit KI), the compounds were treated after being released after thymidine block, and the process was as follows. Thymidine (Sigma-Aldrich Cat. No. T9250-5G) was completely dissolved in DW and used in the experiment. For thymidine block, the products were treated with 2 mM of thymidine and then incubated for 24 hours. For release and chemical treatment, the medium was suctioned and washed with 1×PBS. TrypLE™ was added and incubated in 37° C. CO2 incubator for 5 min. Cells neutralized by adding complete media were counted through a counter. For each well of a 96-well culture plate (SPL), 3.3×10^4 cells and a total medium volume of 150 μL were seeded and incubated in a CO2 incubator.
Each cell line was incubated in a CO2 incubator for 18 hours, and Endurazine was added to each well to make up 4% of the total volume. After adding the compound of the present invention in a 96-well white plate (SPL) to a concentration of 300 nM, the wavelength of the plate reader (BMG Labtech, CLARIOstar Plus) was set to […], and then the luminescence was tracked in real time.
The results are shown in Table 2 below and FIGS. 1 and 2.
In Table 2, Activity represents the ratio of the luminescence value of each Exemplary Compound treatment group to DMSO treatment group (+++: <0.3, ++ <0.6, + <0.7).

H526 cell line = assay: Cell viability assay for H526 cell line; type: cell-based; conditions: Homo sapiens, NCI-H526, 120 h; H526 cells, 5 days, EZ-Cytox, 0.46-3000 nM
Description: 3. Cell Viability Assay for H526 Cell Line
(1) Culture of NCI-H526 Cell Line
(2) Treatment of Compounds of the Present Invention and Method of Cell Viability Assay
After treating the compound to each well to make the total volume of 200 μL, it was cultured in a CO2 incubator (Thermo Fisher Science, Cat. No. 4111) for 5 days.
The absorbance of the completely cultured sample was measured by setting the wavelength of a plate reader (BMG Labtech, CLARIOstar Plus) to […], and was measured after shaking for 3 minutes in a plate reader before measurement.
In Table 3, Activity represents IC50 value of each Exemplary Compound treatment group to H526 cell line (A: <30 nM, B: <50 nM, C: <100 nM, D: <200 nM, E: <400 nM).

[1] = Cell viability assay for MRC-5 cell line; conditions: human
Description: Cell Viability Assay for MRC-5 Cell Line
(1) Culture of MRC-5 Cell Line
The MRC-5 cell line was purchased from Korea Cell Line Bank (KCLB), Seoul, Korea. Passage of cultured cells was maintained within P15.
6×10^3 cells were seeded for each well of a 96-well plate (SPL), and the cells were cultured in total volume of 150 μL.
Each well was mixed with a medium and treated, and the volume was set to 50 μL, so that the total volume of each well was 200 μL. Then, it was cultured in 37° C.
The following compounds were used as comparative examples, and the cell viability assay was performed in the same manner as in the compounds of Examples.
(3) Cytotoxicity Experiment
After treating EZ-Cytox (DOGEN, Cat. NO. EZ-3000, Lot. No. DLS2112) 20 μL in each well of completely cultured plate, it was cultured in 37° C. CO2 incubator for 4 hours. […] The data were converted into graphs using the Prism (ver. 9) program.

SMILES	Activity: ratio of the luminescence value of each Exemplary Compound treatment group to DMSO treatment group (PLK1)	IC50 (H526 cell line) [µM]	IC50 at 5 days ([1]; MRC-5 cells (normal cell line)) [µM]	IC50 at 5 days [1] [µM]
COc1cc(C(=O)NC2CC23CCN(CC2CCN(c4ccc(C5CCC(=O)NC5=O)cc4F)CC2)CC3)ccc1Nc1ncc2c(n1)N(C(C)C)CC(F)(F)C(=O)N2C (stereo not drawn) [Compound 46, 4-((7,7-difluoro-9-isopropyl-5-methyl-6-oxo-6,7,8,9-tetrahydro-5H-pyrimido[4,5-b][1,4]diazepin-2-yl)amino)-N-(6-((1-(4-(2,6-dioxopiperidin-3-yl)-2-fluorophenyl)piperidin-4-yl)methyl)-6-azaspiro[2.5]octan-1-yl)-3-methoxybenzamide]	+++ (+++: <0.3)	< 0.1		> 10
COc1cc(C(=O)NC2CC3(CCN(CC4CCN(c5ccc(C6CCC(=O)NC6=O)cc5F)CC4)CC3)C2)ncc1Nc1ncc2c(n1)N(C(C)C)CC(F)(F)C(=O)N2C (stereo not drawn) [Compound 22, 5-((7,7-difluoro-9-isopropyl-5-methyl-6-oxo-6,7,8,9-tetrahydro-5H-pyrimido[4,5-b][1,4]diazepin-2-yl)amino)-N-(7-((1-(4-(2,6-dioxopiperidin-3-yl)-2-fluorophenyl)piperidin-4-yl)methyl)-7-azaspiro[3.5]nonan-2-yl)-4-methoxypicolinamide]	++ (++ <0.6)	< 0.05		> 10
COc1cc(C(=O)NN2CC3(CCC(CN4CCN(c5ccc(C6CCC(=O)NC6=O)cc5F)CC4)CC3)C2)ccc1Nc1ncc2c(n1)N(C(C)C)CC(F)(F)C(=O)N2C (stereo not drawn) [Compound 31, 4-((7,7-difluoro-9-isopropyl-5-methyl-6-oxo-6,7,8,9-tetrahydro-5H-pyrimido[4,5-b][1,4]diazepin-2-yl)amino)-N-(7-((4-(4-(2,6-dioxopiperidin-3-yl)-2-fluorophenyl)piperazin-1-yl)methyl)-2-azaspiro[3.5]nonan-2-yl)-3-methoxybenzamide]	+++ (+++: <0.3)	< 0.03		> 10
COc1cc(C(=O)NC2CC3(CCN(CC4(O)CCN(c5ccc(C6CCC(=O)NC6=O)cc5F)CC4)CC3)C2)ccc1Nc1ncc2c(n1)N(C(C)C)CC(F)(F)C(=O)N2C (stereo not drawn) [Compound 33, 4-((7,7-difluoro-9-isopropyl-5-methyl-6-oxo-6,7,8,9-tetrahydro-5H-pyrimido[4,5-b][1,4]diazepin-2-yl)amino)-N-(7-((1-(4-(2,6-dioxopiperidin-3-yl)-2-fluorophenyl)-4-hydroxypiperidin-4-yl)methyl)-7-azaspiro[3.5]nonan-2-yl)-3-methoxybenzamide]	++ (++ <0.6)	< 0.03		> 10
COc1cc(C(=O)NC2CCN(C(=O)CCN3CCN(c4ccc(C5CCC(=O)NC5=O)cc4)CC3)CC2)ccc1Nc1ncc2c(n1)N(C(C)C)CC(F)(F)C(=O)N2C (stereo not drawn) [Compound 2, 4-((7,7-difluoro-9-isopropyl-5-methyl-6-oxo-6,7,8,9-tetrahydro-5H-pyrimido[4,5-b][1,4]diazepin-2-yl)amino)-N-(1-(3-(4-(4-(2,6-dioxopiperidin-3-yl)phenyl)piperazin-1-yl)propanoyl)piperidin-4-yl)-3-methoxybenzamide]	++ (++ <0.6)	< 0.03	> 10	
COc1cc(C(=O)NC2CC3(CCN(CC4CCN(c5ccc(C6CCC(=O)NC6=O)cc5F)C(C)C4)CC3)C2)ccc1Nc1ncc2c(n1)N(C(C)C)CC(F)(F)C(=O)N2C (stereo not drawn) [Compound 32, 4-((7,7-difluoro-9-isopropyl-5-methyl-6-oxo-6,7,8,9-tetrahydro-5H-pyrimido[4,5-b][1,4]diazepin-2-yl)amino)-N-(7-((1-(4-(2,6-dioxopiperidin-3-yl)-2-fluorophenyl)-2-methylpiperidin-4-yl)methyl)-7-azaspiro[3.5]nonan-2-yl)-3-methoxybenzamide]	+++ (+++: <0.3)	< 0.03		> 10
COc1cc(C(=O)NC2CCN(C(=O)CCCOc3cccc(C4CCC(=O)NC4=O)c3)CC2)ccc1Nc1ncc2c(n1)N(C(C)C)CC(F)(F)C(=O)N2C (stereo not drawn) [Compound 1, 4-((7,7-difluoro-9-isopropyl-5-methyl-6-oxo-6,7,8,9-tetrahydro-5H-pyrimido[4,5-b][1,4]diazepin-2-yl)amino)-N-(1-(4-(3-(2,6-dioxopiperidin-3-yl)phenoxy)butanoyl)piperidin-4-yl)-3-methoxybenzamide]	+++ (+++: <0.3)	< 0.05	> 10	

Second part, led by results:

Activity: ratio of the luminescence value of each Exemplary Compound treatment group to DMSO treatment group (PLK1)	SMILES	IC50 (H526 cell line) [µM]	IC50 at 5 days ([1]; MRC-5 cells (normal cell line)) [µM]	IC50 at 5 days [1] [µM]
+++ (+++: <0.3)	COc1cc(C(=O)NN2CCC(CCN3CCN(c4ccc(C5CCC(=O)NC5=O)cc4F)CC3)CC2)ccc1Nc1ncc2c(n1)N(C(C)C)CC(F)(F)C(=O)N2C (stereo not drawn) [Compound 45, 4-((7,7-difluoro-9-isopropyl-5-methyl-6-oxo-6,7,8,9-tetrahydro-5H-pyrimido[4,5-b][1,4]diazepin-2-yl)amino)-N-(4-(2-(4-(4-(2,6-dioxopiperidin-3-yl)-2-fluorophenyl)piperazin-1-yl)ethyl)piperidin-1-yl)-3-methoxybenzamide]	< 0.03	> 10	
++ (++ <0.6)	COc1cc(C(=O)NC2CCN(C(=O)CCN3CCN(c4cccc(C5CCC(=O)NC5=O)c4)CC3)CC2)ccc1Nc1ncc2c(n1)N(C(C)C)CC(F)(F)C(=O)N2C (stereo not drawn) [Compound 4, 4-((7,7-difluoro-9-isopropyl-5-methyl-6-oxo-6,7,8,9-tetrahydro-5H-pyrimido[4,5-b][1,4]diazepin-2-yl)amino)-N-(1-(3-(4-(3-(2,6-dioxopiperidin-3-yl)phenyl)piperazin-1-yl)propanoyl)piperidin-4-yl)-3-methoxybenzamide]	< 0.03	> 10	
++ (++ <0.6)	COc1cc(C(=O)NN2CCN(C(=O)CCC3CCN(c4ccc(C5CCC(=O)NC5=O)cc4F)CC3)CC2)ccc1Nc1ncc2c(n1)N(C(C)C)CC(F)(F)C(=O)N2C (stereo not drawn) [Compound 11, 4-((7,7-difluoro-9-isopropyl-5-methyl-6-oxo-6,7,8,9-tetrahydro-5H-pyrimido[4,5-b][1,4]diazepin-2-yl)amino)-N-(1-(3-(1-(4-(2,6-dioxopiperidin-3-yl)-2-fluorophenyl)piperidin-4-yl)propanoyl)piperazin-1-yl)-3-methoxybenzamide]	< 0.05	> 10	
+++ (+++: <0.3)	COc1cc(C(=O)NC2CCC(CCN3CCN(c4ccc(C5CCC(=O)NC5=O)cc4F)CC3)CC2)ccc1Nc1ncc2c(n1)N(C(C)C)CC(F)(F)C(=O)N2C (stereo not drawn) [Compound 43, 4-((7,7-difluoro-9-isopropyl-5-methyl-6-oxo-6,7,8,9-tetrahydro-5H-pyrimido[4,5-b][1,4]diazepin-2-yl)amino)-N-((1r,4r)-4-(2-(4-(4-(2,6-dioxopiperidin-3-yl)-2-fluorophenyl)piperazin-1-yl)ethyl)cyclohexyl)-3-methoxybenzamide]	< 0.03	> 10	
++ (++ <0.6)	COc1cc(C(=O)NN2CCC(F)(CN3CCN(c4ccc(C5CCC(=O)NC5=O)cc4F)CC3)CC2)ccc1Nc1ncc2c(n1)N(C(C)C)CC(F)(F)C(=O)N2C (stereo not drawn) [Compound 18, 4-((7,7-difluoro-9-isopropyl-5-methyl-6-oxo-6,7,8,9-tetrahydro-5H-pyrimido[4,5-b][1,4]diazepin-2-yl)amino)-N-(4-((4-(4-(2,6-dioxopiperidin-3-yl)-2-fluorophenyl)piperazin-1-yl)methyl)-4-fluoropiperidin-1-yl)-3-methoxybenzamide]	< 0.1	> 10	
